Drawing on patent US20240101592A1, “COMPOSITIONS AND METHODS FOR TREATING CNS DISORDERS” (Sage Therapeutics, Inc., priority 2020, published 2024), this text covers IC50 for 19 molecules.

In general, IC50 refers to the concentration needed to halve the response being measured.

This assay deals with GABAA receptor ([35S]-TBPS binding, rat brain cortical membranes). Description: Steroid inhibition of [35S]-TBPS binding. To be noted: 3 nM [35S]-TBPS, in the presence of 5 mM GABA, 90 min at room temp. The procedure: Steroid Inhibition of TBPS Binding
[^35S]-t-Butylbicyclophosphorothionate (TBPS) binding assays using rat brain cortical membranes in the presence of 5 mM GABA has been described (Gee et al, J. Pharmacol. Exp. Ther. 1987, 241, 346-353; Hawkinson et al, Mol. Pharmacol. 1994, 46, 977-985; Lewin, A. H et al., Mol. Pharmacol. 1989, 35, 189-194).
Briefly, cortices are rapidly removed following decapitation of carbon dioxide-anesthetized Sprague-Dawley rats (200-250 g). The cortices are homogenized in 10 volumes of ice-cold 0.32 M sucrose using a glass/teflon homogenizer and centrifuged at 1500×g for 10 min at 4° C. The resultant supernatants are centrifuged at 10,000×g for 20 min at 4° C. to obtain the P2 pellets. The P2 pellets are resuspended in 200 mM NaCl/50 mM Na—K phosphate pH 7.4 buffer and centrifuged at 10,000×g for 10 min at 4° C. This washing procedure is repeated twice and the pellets are resuspended in 10 volumes of buffer. Aliquots ([…]) of the membrane suspensions are incubated with 3 nM [^35S]-TBPS and […] aliquots of test drug dissolved in dimethyl sulfoxide (DMSO) (final 0.5%) in the presence of 5 mM GABA. The incubation is brought to a final volume of 1.0 mL with buffer. Nonspecific binding is determined in the presence of […] and ranged from 15 to 25%. Following a 90 min incubation at room temp, the assays are terminated by filtration through glass fiber filters (Schleicher and Schuell No. 32) using a cell harvester (Brandel) and rinsed three times with ice-cold buffer. Filter bound radioactivity is measured by liquid scintillation spectrometry. Non-linear curve fitting of the overall data for each drug averaged for each concentration is done using Prism (GraphPad). […] The concentration of test compound producing 50% inhibition (IC50) of specific binding and the maximal extent of inhibition (Imax) are determined for the individual experiments with the same model used for the overall data and then the means±SEM.s of the individual experiments are calculated.
Various compounds are or can be screened to determine their potential as modulators of [^35S]-TBPS binding in vitro. These assays are or can be performed in accordance with the above.
As to `CC(=O)[C@H]1CC[C@@]23C[C@@]12CC[C@H]1[C@H]3CC[C@H]2C[C@](C)(O)CC[C@@]21C` [Compound No. 22, 1-((3R,5S,8R,9S,10S,13S,14S,17S)-3-hydroxy-3,10-dimethyltetradecahydro-1H-13,14-methanocyclopenta[a]phenanthren-17-yl)ethanone], the IC50 is 100 to 1000 nM. In the case of `COC[C@@]1(O)CC[C@H]2[C@@H](CC[C@@H]3[C@@H]2CC[C@@]2(C)[C@H]3[C@@H]3C[C@@H]3[C@@H]2[C@H](C)Cn2nnc(C)n2)C1` [Compound No. 17, (2R,4aS,4bR,6aS,7R,7aS,8aR,8bR,8cR,10aS)-2-(methoxymethyl)-6a-methyl-7-((S)-1-(5-methyl-2H-tetrazol-2-yl)propan-2-yl)octadecahydrocyclopropa[4,5]cyclopenta[1,2-a]phenanthren-2-ol] it was 100 to 1000 nM; in that of `C[C@@]1(O)CC[C@H]2[C@H](CC[C@@H]3[C@@H]2CC[C@]2(C)[C@H](C(=O)Cn4cc(C#N)cn4)[C@H]4C[C@H]4C[C@@H]32)C1` [Compound No. 7, 1-(2-((2R,4aS,4bR,6aS,7R,7aS,8aS,9aS,9bR,11aR)-2-hydroxy-2,6a-dimethyloctadecahydro-1H-cyclopropa[b]chrysen-7-yl)-2-oxoethyl)-1H-pyrazole-4-carbonitrile], over 1000 nM.

As for `C[C@@]1(O)CC[C@@]2(C)[C@@H](CC[C@@H]3[C@@H]2CC[C@@]24C[C@@]32CC[C@@H]4C(=O)Cn2cc(C#N)cn2)C1` [Compound No. 23, 1-(2-((3R,5S,8R,9S,10S,13S,14S,17S)-3-hydroxy-3,10-dimethyltetradecahydro-1H-13,14-methanocyclopenta[a]phenanthren-17-yl)-2-oxoethyl)-1H-pyrazole-4-carbonitrile], the IC50 was under 100 nM. The result for `CCC[C@@]1(O)CC[C@H]2C(CC[C@@H]3[C@@H]2CC[C@@]2(C)[C@H]3[C@@H]3C[C@@H]3[C@@H]2C(=O)Nc2ccc(C#N)cn2)C1` (stereo in doubt) [Compound No. 15, (2R,4aS,4bR,6aS,7S,7aS,8aR,8bR,8cR,10aR)-N-(5-cyanopyridin-2-yl)-2-hydroxy-6a-methyl-2-propyloctadecahydrocyclopropa[4,5]cyclopenta[1,2-a]phenanthrene-7-carboxamide] reads under 100 nM. In the case of `C[C@@]1(O)CC[C@H]2[C@H](CC[C@@H]3[C@@H]2CC[C@@]2(C)[C@H]3C[C@H]3C[C@H]3[C@@H]2C(=O)Cn2cc(C#N)cn2)C1` [Compound No. 1, 1-(2-((2R,4aS,4bR,6aS,7S,7aR,8aR,9aS,9bR,11aR)-2-hydroxy-2,6α-dimethyloctadecahydro-1H-cyclopropa[b]chrysen-7-yl)-2-oxoethyl)-1H-pyrazole-4-carbonitrile] it was under 100 nM. In the case of `Cc1nnnn1C[C@@H]1C[C@H]1[C@H]1CC[C@H]2[C@@H]3CC[C@@H]4C[C@](C)(O)CC[C@@H]4[C@H]3CC[C@]12C` [Compound No. 27, (3R,5R,8R,9R,10S,13S,14S,17R)-3,13-dimethyl-17-((1S,2R)-2-((5-methyl-1H-tetrazol-1-yl)methyl)cyclopropyl)hexadecahydro-1H-cyclopenta[a]phenanthren-3-ol] it was 100 to 1000 nM.

With `C[C@@]1(O)CC[C@H]2[C@H](CC[C@@H]3[C@@H]2CC[C@@]2(C)[C@H]3C[C@@H]3C[C@@H]3[C@@H]2C(=O)Cn2cc(C#N)cn2)C1` [Compound No. 6, 1-(2-((2R,4aS,4bR,6aS,7S,7aS,8aS,9aS,9bR,11aR)-2-hydroxy-2,6a-dimethyloctadecahydro-1H-cyclopropa[b]chrysen-7-yl)-2-oxoethyl)-1H-pyrazole-4-carbonitrile], the half-maximal inhibitory concentration (IC50) was under 100 nM.

`C[C@@]1(O)CC[C@H]2[C@H](CC[C@@H]3[C@@H]2CC[C@@]2(C)[C@H]3[C@@H]3C[C@@H]3C[C@@H]2C(=O)Cn2cc(C#N)cn2)C1` [Compound No. 8, 1-(2-((1S,2aR,3aR,3bS,3cR,5aR,7R,9aS,9bR,11aS)-7-hydroxy-7,11a-dimethyloctadecahydro-1H-cyclopropa[c]chrysen-1-yl)-2-oxoethyl)-1H-pyrazole-4-carbonitrile]: the half-inhibitory concentration (IC50) was under 100 nM. The result for `C[C@@]1(O)CC[C@H]2[C@H](CC[C@@H]3[C@@H]2CC[C@@]2(C)[C@H]3C[C@H]3C[C@H]3[C@@H]2[C@](C)(O)Cn2cc(C#N)cn2)C1` [Compound No. 2, 1-((S)-2-hydroxy-2-((2R,4aS,4bR,6aS,7S,7aR,8aR,9aS,9bR,11aR)-2-hydroxy-2,6a-dimethyloctadecahydro-1H-cyclopropa[b]chrysen-7-yl)propyl)-1H-pyrazole-4-carbonitrile] reads under 100 nM; that for `C[C@@]1(O)CC[C@H]2[C@H](CC[C@@H]3[C@@H]2CC[C@@]2(C)[C@H]3[C@@H]3C[C@@H]3[C@@H]2[C@](C)(O)Cn2cc(C#N)cn2)C1` (single isomer, unassigned) [Compound No. 12], under 100 nM; that for `Cc1nnnn1C[C@H]1C[C@@H]1[C@H]1CC[C@H]2[C@@H]3CC[C@@H]4C[C@](C)(O)CC[C@@H]4[C@H]3CC[C@]12C` [Compound No. 26, (3R,5R,8R,9R,10S,13S,14S,17R)-3,13-dimethyl-17-((1R,2S)-2-((5-methyl-1H-tetrazol-1-yl)methyl)cyclopropyl)hexadecahydro-1H-cyclopenta[a]phenanthren-3-ol], under 100 nM. For `CC(Cn1cc(C#N)cn1)[C@H]1[C@H]2C[C@H]2[C@H]2[C@@H]3CC[C@@H]4C[C@](C)(O)CC[C@@H]4[C@H]3CC[C@@]21C` (single isomer, unassigned) [Compound No. 10], the IC50 was under 100 nM.

Turning to `C[C@@H](Cn1cc(C#N)cn1)[C@H]1[C@@H]2C[C@@H]2C[C@H]2[C@@H]3CC[C@@H]4C[C@](C)(O)CC[C@@H]4[C@H]3CC[C@]12C` [Compound No. 4, 1-((R)-2-((2R,4aS,4bR,6aS,7R,7aR,8aR,9aS,9bR,11aR)-2-hydroxy-2,6a-dimethyloctadecahydro-1H-cyclopropa[b]chrysen-7-yl)propyl)-1H-pyrazole-4-carbonitrile], the half-maximal inhibitory concentration (IC50) was under 100 nM. For the molecule `COC[C@@]1(O)CC[C@H]2[C@@H](CC[C@@H]3[C@@H]2CC[C@@]2(C)[C@H]3[C@@H]3C[C@@H]3[C@@H]2[C@@H](C)Cn2nnc(C)n2)C1` [Compound No. 18, (2R,4aS,4bR,6aS,7R,7aS,8aR,8bR,8cR,10aS)-2-(methoxymethyl)-6a-methyl-7-((R)-1-(5-methyl-2H-tetrazol-2-yl)propan-2-yl)octadecahydrocyclopropa[4,5]cyclopenta[1,2-a]phenanthren-2-ol], the IC50 was in the range of 100 to 1000 nM. The result for `C[C@H](Cn1cc(C#N)cn1)[C@H]1[C@@H]2C[C@@H]2C[C@H]2[C@@H]3CC[C@@H]4C[C@](C)(O)CC[C@@H]4[C@H]3CC[C@]12C` [Compound No. 5, 1-((S)-2-((2R,4aS,4bR,6aS,7R,7aR,8aR,9aS,9bR,11aR)-2-hydroxy-2,6a-dimethyloctadecahydro-1H-cyclopropa[b]chrysen-7-yl)propyl)-1H-pyrazole-4-carbonitrile] reads under 100 nM; that for `C[C@@]1(O)CC[C@H]2[C@H](CC[C@@H]3[C@@H]2CC[C@@]2(C)[C@H]3C[C@H]3C[C@H]3[C@@H]2[C@@](C)(O)Cn2cc(C#N)cn2)C1` [Compound No. 3], under 100 nM; that for `C[C@@]1(O)CC[C@H]2[C@H](CC[C@@H]3[C@@H]2CC[C@@]2(C)[C@H]3[C@@H]3C[C@@H]3[C@@H]2[C@@](C)(O)Cn2cc(C#N)cn2)C1` (single isomer, unassigned) [Compound No. 13], under 100 nM.

As for `C[C@@]1(O)CC[C@H]2[C@H](CC[C@@H]3[C@@H]2CC[C@]2(C)[C@@H]([C@@H]4C[C@H]4Cn4cc(C#N)cn4)CC[C@@H]32)C1` [Compound No. 25, 1-(((1R,2S)-2-((3R,5R,8R,9R,10S,13S,14S,17R)-3-hydroxy-3,13-dimethylhexadecahydro-1H-cyclopenta[a]phenanthren-17-yl)cyclopropyl)methyl)-1H-pyrazole-4-carbonitrile], the IC50 is under 100 nM.
